Assay results as given in patent US6706663B2, “Herbicidal 3-heterocyclic substituted benzisothiazole and benzisoxazole compounds” (Wyeth, priority 2000, dated 2004).

Assays:
[1] = test system: ECHORC (Echinochloa oryzoides); test: Flooded paddy, postemergence weed control; assay type: in vivo, Echinochloa oryzoides (Ard.) Fritsch.; settings: postemergence weeds, rated 3-4 weeks after treatment
Source text: (§1) Results of herbicide evaluation are expressed on a rating scale (0-9). The scale is based upon a visual observation of plant stand, vigor, malformation, size, chlorosis and overall plant appearance as compared with a control.
(§2) Plastic containers containing weeds which are 3 to 5 cm tall and rice seedlings at the 1.5 to 2.5 leaf stage are flooded with water. The water is maintained at 1.5 to 3 cm above the soil surface for the duration of the experiment. Test compounds are applied as aqueous/acetone mixtures 50/50 v/v directly into the flood water to provide the equivalent of about 0.0320 to 0.2500 kg/ha of active ingredient. The treated containers are placed on greenhouse benches and cared for in accordance with conventional greenhouse procedures. Three to four weeks after treatment, the test is terminated and each container is examined and herbicidal effect rated according to the rating system provided in Example 87. The compounds evaluated are identified in Example 87 and plant species used are identified in Example 89.

SETVI (Setaria viridis) [2] = test: Preemergence herbicidal evaluation; assay type: in vivo, (L.) Beau; settings: preemergence, rated 4-5 weeks after treatment
Outline: (§3)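 Each species was sown separately in potting soil over roughly one inch of soil, and the surface sprayed with compound dissolved in aqueous acetone. Assessment used a 0–9 visual scale against a control after four to five weeks.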

[3] = test system: ECHCG (Echinochloa crus-galli); test: Preemergence herbicidal evaluation; assay type: in vivo, (L.) Beau; settings: preemergence, rated 4-5 weeks after treatment
Outline: as §3

ZEAMX (Corn, Field) = test: Preemergence herbicidal evaluation; assay type: in vivo, Zea mays, L.; settings: preemergence, rated 4-5 weeks after treatment
GALAP (Galium aparine) [4] = test: Postemergence herbicidal evaluation; assay type: in vivo
Outline: (§4)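 Seedlings grown for about two weeks were sprayed postemergence and then kept under standard greenhouse care. Injury was rated visually 4–5 weeks after treatment on a 0–9 scale against untreated controls, and ratings from repeat tests were averaged.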

SETVI (Setaria viridis) [5] = test: Postemergence herbicidal evaluation; assay type: in vivo, (L.) Beau
Outline: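 ~2-wk seedlings; spray 0.0040–1.000 kg/ha in 50/50 acetone/water + 0.5% TWEEN 20, 40 psi nozzle. Greenhouse hold; visual 0–9 rating vs control at 4–5 wk; multiple tests averaged.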

[6] = test system: GLXMAW (Soybean, Williams); test: Postemergence herbicidal evaluation; assay type: in vivo, Glycine max, (L.) Merr. cv Williams
Outline: as §4

[7] = test system: GLXMAW (Soybean, Williams); test: Preemergence herbicidal evaluation; assay type: in vivo, Glycine max, (L.) Merr. cv Williams; settings: preemergence, rated 4-5 weeks after treatment
[8] = test system: SAGPY (Sagittaria pygmaea); test: Flooded paddy, postemergence weed control; assay type: in vivo, L.; settings: postemergence weeds, rated 3-4 weeks after treatment
Source text: as §1, §2

ORYSAT (Rice, Tebonnet) = test: Flooded paddy, post-transplant and postemergence rice tolerance; assay type: in vivo, Oryza sativa, (L.) Tebonnet; settings: post-transplant rice, rated 3-4 weeks after treatment
Source text: as §1, §2

[9] = test system: MOOVA (Monochoria vaginalis); test: Flooded paddy, preemergence weed control; assay type: in vivo, Presl.; settings: rated 3-4 weeks after treatment, 0-9 rating scale
Outline: (§5)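 Seeds or propagating organs were sown in the top 0.5 cm of silt loam soil, flooded, and the water kept 1.5 to 3 cm above the soil surface throughout. Plants were grown in the greenhouse and rated visually on a 0-9 scale against a control.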

[10] = test system: IPOHE (Ipomoea hederacea); test: Preemergence herbicidal evaluation; assay type: in vivo, (L.) Jacq.; settings: preemergence, rated 4-5 weeks after treatment
CYPIR (Cyperus iria) [11] = test: Flooded paddy, postemergence weed control; assay type: in vivo; settings: postemergence weeds, rated 3-4 weeks after treatment
Source text: as §1, §2

GALAP (Galium aparine) [12] = test: Preemergence herbicidal evaluation; assay type: in vivo; settings: preemergence, rated 4-5 weeks after treatment
Outline: as §3

[13] = test system: CYPSE (Cyperus serotinus); test: Flooded paddy, postemergence weed control; assay type: in vivo, Rottb.; settings: postemergence weeds, rated 3-4 weeks after treatment
Source text: as §1, §2

CYPIR (Cyperus iria) [14] = test: Flooded paddy, preemergence weed control; assay type: in vivo; settings: rated 3-4 weeks after treatment, 0-9 rating scale
Outline: as §5

[15] = test system: MOOVA (Monochoria vaginalis); test: Flooded paddy, postemergence weed control; assay type: in vivo, Presl.; settings: postemergence weeds, rated 3-4 weeks after treatment
Source text: as §1, §2

## Cn1c(C(F)(F)F)cc(=O)n(-c2ccc3snc(-c4ccsc4)c3c2)c1=O [Compound 1, 1-methyl-3-[3-(3-thienyl)-1,2-benzisothiazol-5-yl]-6-(trifluoromethyl)uracil]
[1]; 0.0320 kg/ha into flood water
  herbicide rating (0-9) ECHORC: 9.0
[1]; 0.0620 kg/ha into flood water
  herbicide rating (0-9) ECHORC: 9.0
[1]; 0.1250 kg/ha into flood water
  herbicide rating (0-9) ECHORC: 9.0
SETVI (Setaria viridis) [2]; Rate 0.0620 kg/ha
  SETVI preemergence herbicidal rating: 9.0
SETVI (Setaria viridis) [2]; Rate 0.1250 kg/ha
  SETVI preemergence herbicidal rating: 9.0
SETVI (Setaria viridis) [2]; Rate 0.2500 kg/ha
  SETVI preemergence herbicidal rating: 9.0
[3]; Rate 0.0620 kg/ha
  ECHCG preemergence herbicidal rating: 7.3
[3]; Rate 0.1250 kg/ha
  ECHCG preemergence herbicidal rating: 8.0
[3]; Rate 0.2500 kg/ha
  ECHCG preemergence herbicidal rating: 9.0
ZEAMX (Corn, Field); Rate 0.0620 kg/ha
  ZEAMX preemergence herbicidal rating: 6.0
ZEAMX (Corn, Field); Rate 0.1250 kg/ha
  ZEAMX preemergence herbicidal rating: 6.7
ZEAMX (Corn, Field); Rate 0.2500 kg/ha
  ZEAMX preemergence herbicidal rating: 7.0
GALAP (Galium aparine) [4]; rate 0.0320 kg/ha
  Postemergence herbicidal rating, GALAP: 5.0
GALAP (Galium aparine) [4]; rate 0.0620 kg/ha
  Postemergence herbicidal rating, GALAP: 6.5
GALAP (Galium aparine) [4]; rate 0.1250 kg/ha
  Postemergence herbicidal rating, GALAP: 7.5
SETVI (Setaria viridis) [5]; rate 0.0320 kg/ha
  Postemergence herbicidal rating, SETVI: 7.0
SETVI (Setaria viridis) [5]; rate 0.0620 kg/ha
  Postemergence herbicidal rating, SETVI: 6.5
SETVI (Setaria viridis) [5]; rate 0.1250 kg/ha
  Postemergence herbicidal rating, SETVI: 8.0
[6]; rate 0.0320 kg/ha
  Postemergence herbicidal rating, GLXMAW: 6.8
[6]; rate 0.0620 kg/ha
  Postemergence herbicidal rating, GLXMAW: 7.0
[6]; rate 0.1250 kg/ha
  Postemergence herbicidal rating, GLXMAW: 7.8
[7]; Rate 0.0620 kg/ha
  GLXMAW preemergence herbicidal rating: 7.0
[7]; Rate 0.1250 kg/ha
  GLXMAW preemergence herbicidal rating: 9.0
[7]; Rate 0.2500 kg/ha
  GLXMAW preemergence herbicidal rating: 9.0
[8]; 0.0320 kg/ha into flood water
  herbicide rating (0-9) SAGPY: 4.0
[8]; 0.0620 kg/ha into flood water
  herbicide rating (0-9) SAGPY: 7.0
[8]; 0.1250 kg/ha into flood water
  herbicide rating (0-9) SAGPY: 9.0
ORYSAT (Rice, Tebonnet); 0.0320 kg/ha into flood water
  herbicide rating (0-9) ORYSAT (rice tolerance): 7.0
ORYSAT (Rice, Tebonnet); 0.0620 kg/ha into flood water
  herbicide rating (0-9) ORYSAT (rice tolerance): 7.0
ORYSAT (Rice, Tebonnet); 0.1250 kg/ha into flood water
  herbicide rating (0-9) ORYSAT (rice tolerance): 7.0
[9]; rate 0.0080 kg/ha
  herbicidal rating, MOOVA: 9.0
[9]; rate 0.0320 kg/ha
  herbicidal rating, MOOVA: 9.0
[9]; rate 0.1250 kg/ha
  herbicidal rating, MOOVA: 9.0
[10]; Rate 0.0620 kg/ha
  IPOHE preemergence herbicidal rating: 8.0
[10]; Rate 0.1250 kg/ha
  IPOHE preemergence herbicidal rating: 9.0
[10]; Rate 0.2500 kg/ha
  IPOHE preemergence herbicidal rating: 9.0
CYPIR (Cyperus iria) [11]; 0.0320 kg/ha into flood water
  herbicide rating (0-9) CYPIR: 9.0
CYPIR (Cyperus iria) [11]; 0.0620 kg/ha into flood water
  herbicide rating (0-9) CYPIR: 9.0
CYPIR (Cyperus iria) [11]; 0.1250 kg/ha into flood water
  herbicide rating (0-9) CYPIR: 9.0
GALAP (Galium aparine) [12]; Rate 0.0620 kg/ha
  GALAP preemergence herbicidal rating: 9.0
GALAP (Galium aparine) [12]; Rate 0.1250 kg/ha
  GALAP preemergence herbicidal rating: 7.0
GALAP (Galium aparine) [12]; Rate 0.2500 kg/ha
  GALAP preemergence herbicidal rating: 6.5
[13]; 0.0320 kg/ha into flood water
  herbicide rating (0-9) CYPSE: 2.0
[13]; 0.0620 kg/ha into flood water
  herbicide rating (0-9) CYPSE: 4.0
[13]; 0.1250 kg/ha into flood water
  herbicide rating (0-9) CYPSE: 7.0
CYPIR (Cyperus iria) [14]; rate 0.0080 kg/ha
  herbicidal rating, CYPIR: 9.0
CYPIR (Cyperus iria) [14]; rate 0.0320 kg/ha
  herbicidal rating, CYPIR: 9.0
CYPIR (Cyperus iria) [14]; rate 0.1250 kg/ha
  herbicidal rating, CYPIR: 9.0
[15]; 0.0320 kg/ha into flood water
  herbicide rating (0-9) MOOVA: 9.0
[15]; 0.0620 kg/ha into flood water
  herbicide rating (0-9) MOOVA: 9.0
[15]; 0.1250 kg/ha into flood water
  herbicide rating (0-9) MOOVA: 9.0
